Measured values: patent US5789434A, “Derivatives of substituted 4-biarylbutyric acid as matrix metalloprotease inhibitors” (priority 1995, dated 1998)

Assays:
MMP-9 = biological target: T1, MMP-9 (Homo sapiens, UniProt P14780); assay: Thiopeptilide MMP-9 Inhibition Assay; assay type: biochemical; conditions: for inhibition at 5 µM: read-out: MMP-9: Thiopep. % inhibition; for IC50: pH 6.5, x (n) = average of n determinations, read-out: MMP-9: Thiopep. IC50
T1 construct: from tissue; host or cells: human polymorphonuclear leukocytes (PMN) from whole blood (New York Blood Center), PMA-stimulated supernatant
T1 sequence (P14780 107-707 limits assumed): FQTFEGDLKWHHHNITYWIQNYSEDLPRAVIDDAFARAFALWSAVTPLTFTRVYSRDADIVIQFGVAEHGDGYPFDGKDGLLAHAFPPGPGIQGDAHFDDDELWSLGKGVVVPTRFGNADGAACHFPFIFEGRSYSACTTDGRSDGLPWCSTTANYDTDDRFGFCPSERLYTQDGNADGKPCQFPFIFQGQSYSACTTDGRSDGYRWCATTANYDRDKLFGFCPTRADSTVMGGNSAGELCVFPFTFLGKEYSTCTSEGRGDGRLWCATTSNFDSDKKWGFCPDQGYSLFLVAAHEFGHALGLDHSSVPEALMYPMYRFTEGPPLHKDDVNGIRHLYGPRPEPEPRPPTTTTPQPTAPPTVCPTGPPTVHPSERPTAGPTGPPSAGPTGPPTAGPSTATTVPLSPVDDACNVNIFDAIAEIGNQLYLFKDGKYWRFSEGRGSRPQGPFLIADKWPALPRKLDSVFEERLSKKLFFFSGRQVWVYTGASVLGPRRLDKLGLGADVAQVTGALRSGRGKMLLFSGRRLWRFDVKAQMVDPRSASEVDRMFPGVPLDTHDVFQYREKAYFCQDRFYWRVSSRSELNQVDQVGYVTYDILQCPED

MMP-3 = biological target: T2, MMP-3 (Homo sapiens, UniProt P08254); assay: Primary Thiopeptilide MMP-3 Inhibition Assay; assay type: biochemical; conditions: for inhibition at 5 µM: read-out: MMP-3 Thiopep. % inhibition; for IC50: pH 6.5, 13 nM stromelysin, x (n) = average of n determinations, read-out: MMP-3 Thiopep. IC50
T2 construct: Truncated Prostromelysin-257 was expressed in a soluble form in E.coli; made in house; host or cells: E. coli
T2 sequence (P08254 100-274 limits assumed): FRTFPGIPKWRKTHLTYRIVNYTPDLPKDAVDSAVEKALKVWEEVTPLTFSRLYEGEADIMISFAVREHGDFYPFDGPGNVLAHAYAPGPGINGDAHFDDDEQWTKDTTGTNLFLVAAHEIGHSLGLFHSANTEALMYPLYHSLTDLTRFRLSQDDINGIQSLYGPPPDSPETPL

An inhibition at 5 µM (MMP-9) of 32% and an inhibition at 5 µM (MMP-3; at 5 μM) of 24% were found for CC(C)CC(CCC(=O)c1ccc(-c2ccc(Cl)cc2)cc1)C(=O)O (stereo not drawn) [Example 338, [1,1'-Biphenyl]-4-pentanoic acid, 4'-chloro-α-(2-methylpropyl)-δ-oxo-] in this work.
An inhibition at 5 µM (MMP-9) of 0% and an inhibition at 5 µM (MMP-3; at 5 μM) of 1% were found for O=C(O)CCC(=O)c1ccc(-c2ccccc2Cl)cc1 [Example 10, [1,1'-Biphenyl]-4-butanoic acid, 2'-chloro-γ-oxo-, reference compound] in this work.
An inhibition at 5 µM (MMP-9) of 22% and an inhibition at 5 µM (MMP-3; at 5 μM) of 35% were found for CCc1ccc(-c2ccc(C(=O)CC(CC(C)C)C(=O)O)nc2)cc1 (stereo not drawn) [Example 61, 2-Pyridinebutanoic acid, 5-(4-ethylphenyl)-α-(2-methylpropyl)-γ-oxo-] in this work.
An IC50 (MMP-9) of 1300 nM and an IC50 (MMP-3) of 151 nM were found for COc1cccc(CCC(CC(=O)c2ccc(-c3ccc(Cl)cc3)cc2)C(=O)O)c1 (stereo not drawn) [Example 188, [1,1'-Biphenyl]-4-butanoic acid, 4'-chloro-α-[2-(3-methoxyphenyl)ethyl]-γ-oxo-] in this work.
An IC50 (MMP-9) of 2100 nM and an IC50 (MMP-3) of 820 nM were found for CC(=O)SCC(CC(=O)O)C(=O)c1ccc(-c2ccc(Cl)cc2)cc1 (stereo not drawn) [Example 258, [1,1'-Biphenyl]-4-butanoic acid, β-[(acetylthio)methyl]-4'-chloro-γ-oxo-, reference compound] in this work.
An inhibition at 5 µM (MMP-9) of 14% and an inhibition at 5 µM (MMP-3; at 5 μM) of 11% were found for O=C(CC(CCCc1ccccc1)c1nnn[nH]1)c1ccc(-c2ccc(Br)cc2)cc1 (centres unmarked) [Example 344, 1-Hexanone, 1-(4'-bromo[1,1'-biphenyl]-4-yl)-6-phenyl-3-(1H-tetrazol-5-yl)-] in this work.
An inhibition at 5 µM (MMP-9) of 18% and an inhibition at 5 µM (MMP-3; at 5 μM) of 15% were found for O=C(O)[C@H]1C2CCC(CC2)[C@@H]1C(=O)c1ccc(-c2ccc(Cl)cc2)cc1 (relative stereo) [Example 331, Bicyclo[2.2.2]octane-2-carboxylic acid, 3-[(4'-chloro[1,1'-biphenyl]-4-yl)carbonyl]-, trans-] in this work.
An IC50 (MMP-9) of 390 nM and an IC50 (MMP-3) of 650 nM were found for CCc1ccc(SCC(CC(=O)c2ccc(-c3ccc(Cl)cc3)cc2)C(=O)O)cc1 (stereo not drawn) [Example 212, [1,1'-Biphenyl]-4-butanoic acid, 4'-chloro-α-[[(4-ethylphenyl)thio]methyl]-γ-oxo-] in this work.
An IC50 (MMP-9) of 2900 nM and an IC50 (MMP-3) of 293 nM were found for O=C(CC(SCc1ccccc1)C(=O)O)c1ccc(-c2ccc(Cl)cc2)cc1 (stereo not drawn) [Example 252, [1,1'-Biphenyl]-4-butanoic acid, 4'-chloro-γ-oxo-α-[(phenylmethyl)thio]-] in this work.
An inhibition at 5 µM (MMP-9) of 22% and an inhibition at 5 µM (MMP-3; at 5 μM) of 16% were found for O=C(CC(CCCc1ccccc1)C(=O)O)c1ccc(-c2ccc(-c3nnn[nH]3)cc2)cc1 (stereo not drawn) [Example 57, [1,1'-Biphenyl]-4-butanoic acid, γ-oxo-α-(3-phenylpropyl)-4'-(1H-tetrazol-5-yl)-] in this work.
An IC50 (MMP-9) of 1500 nM and an IC50 (MMP-3) of 1700 nM were found for O=C(O)CC1(CC(=O)c2ccc(-c3ccc(Cl)cc3)cc2)CCCCC1 [Example 339, Cyclohexaneacetic acid, 1-[2-(4'-chloro[1,1'-biphenyl]-4-yl)-2-oxoethyl]-] in this work.
An IC50 (MMP-9) of 290 nM and an IC50 (MMP-3) of 180 nM were found for O=C(CC(CSCCCc1ccccc1)C(=O)O)c1ccc(-c2ccc(Cl)cc2)cc1 (stereo not drawn) [Example 207, [1,1'-Biphenyl]-4-butanoic acid, 4'-chloro-γ-oxo-α-[[(3-phenylpropyl)thio]methyl]-] in this work.
An inhibition at 5 µM (MMP-9) of 16% and an inhibition at 5 µM (MMP-3; at 5 μM) of 9% were found for O=C(O)C1C2C=CC(CC2)C1C(=O)c1ccc(-c2ccc(Cl)cc2)cc1 (centres unmarked) [Example 330] in this work.
An inhibition at 5 µM (MMP-9) of 20% and an inhibition at 5 µM (MMP-3; at 5 μM) of 4% were found for O=C(CC(CCCc1ccccc1)C(=O)O)c1ccc(-c2ccc(Cl)cc2)o1 (stereo not drawn) [Example 350, 2-Furanbutanoic acid, 5-(4-chlorohenyl)-γ-oxo-α-(3-phenylpropyl)-] in this work.
An IC50 (MMP-9) of 500 nM and an IC50 (MMP-3) of 980 nM were found for O=C(CC(CCCc1ccccc1)C(=O)O)c1ccc(-c2ccc([N+](=O)[O-])cc2)cc1 (stereo not drawn) [Example 63, [1,1'-Biphenyl]-4-butanoic acid, 4'-nitro-γ-oxo-α-(3-phenylpropyl)-] in this work.
An IC50 (MMP-9) of 550 nM and an IC50 (MMP-3) of 310 nM were found for O=C(O)CCc1ccc(SCC(CC(=O)c2ccc(-c3ccc(Cl)cc3)cc2)C(=O)O)cc1 (stereo not drawn) [Example 225, [1,1'-Biphenyl]-4-butanoic acid, α-[[[4-(2-carboxyethyl)phenyl]thio]methyl]-4'-chloro--γ-oxo-] in this work.
An IC50 (MMP-9) of 820 nM and an IC50 (MMP-3) of 280 nM were found for Cc1cccc(SCC(CC(=O)c2ccc(-c3ccc(Cl)cc3)cc2)C(=O)O)c1 (stereo not drawn) [Example 231, [1,1'-Biphenyl]-4-butanoic acid, 4'-chloro-α-[[(3-methylphenyl)thio]methyl]-γ-oxo-] in this work.
An inhibition at 5 µM (MMP-9) of 19% and an inhibition at 5 µM (MMP-3; at 5 μM) of 11% were found for CC(C)CC(CC(=O)O)C(=O)c1ccc(-c2ccc(Cl)cc2)cc1 (single isomer, unassigned) [Example 5, 5-methyl-3-[oxo-(4'-chloro-4-biphenyl)methyl]hexanoic acid] in this work.
An inhibition at 5 µM (MMP-9) of 25% and an inhibition at 5 µM (MMP-3; at 5 μM) of 8% were found for O=C(O)/C=C/C(=O)c1ccc(Oc2ccc(Cl)cc2)cc1 [Example 30, 2-Butenoic acid, 4-[4-(4-chlorophenoxy)penyl]-4-oxo-, (E)-, reference compound] in this work.
An IC50 (MMP-9) of 1800 nM and an IC50 (MMP-3) of 1000 nM were found for O=C(CC(CCCc1ccccc1)C(=O)O)c1ccc(-c2ccsc2)cc1 (stereo not drawn) [Example 76, Benzenepentanoic acid, α-[2-oxo-2-[4-(3-thienyl)phenyl]ethyl]-] in this work.
An IC50 (MMP-9) of 1500 nM and an IC50 (MMP-3) of 757 nM were found for COc1ccc(CCC(CC(=O)c2ccc(-c3ccc(Cl)cc3)cc2)C(=O)O)cc1 (stereo not drawn) [Example 187, [1,1'-Biphenyl]-4-butanoic acid, 4'-chloro-α-[2-(4-methoxyphenyl)ethyl]-γ-oxo-] in this work.
An IC50 (MMP-9) of 330 nM and an IC50 (MMP-3) of 550 nM were found for O=C(CC(CCCc1ccccc1)C(=O)O)c1ccc(-c2ccc(Cl)cc2)s1 (stereo not drawn) [Example 349, 2-Thiophenebutanoic acid, 5-(4-chlorophenyl)-γ-oxo-α-(3-phenylpropyl)-] in this work.
An inhibition at 5 µM (MMP-9) of 30% and an IC50 (MMP-3) of 5000 nM were found for O=C(CC(CCCc1ccccc1)P(=O)(O)O)c1ccc(-c2ccc(Br)cc2)cc1 (centres unmarked) [Example 345, Phosphonic acid, [1-[2-(4'-bromo[1,1'-biphenyl]-4-yl)-2-oxoethyl]-4-phenylbutyl]-] in this work.
An IC50 (MMP-9) of 600 nM and an IC50 (MMP-3) of 1400 nM were found for O=C(O)CC1(CC(=O)c2ccc(-c3ccc(Cl)cc3)cc2)CCCC1 [Example 336, Cyclopentaneactic acid, 1-[2-(4'-chloro[1,1'-biphenyl]-4-yl)-2-oxoethyl]-] in this work.
An IC50 (MMP-9) of 383 nM and an IC50 (MMP-3) of 170 nM were found for COc1ccc(CCCC(CC(=O)c2ccc(-c3ccc(Cl)cc3)cc2)C(=O)O)cc1 (stereo not drawn) [Example 186, [1,1'-Biphenyl]-4-butanoic acid, 4'-chloro-α[3-(4-methoxyphenyl)propyl]-γ-oxo-] in this work.
An IC50 (MMP-9) of 600 nM and an IC50 (MMP-3) of 530 nM were found for O=C(CC(CC#Cc1ccccc1)C(=O)O)c1ccc(-c2ccc(Cl)cc2)cc1 (stereo not drawn) [Example 189, [1,1'-Biphenyl]-4-butanoic acid, 4'-chloro-γ-oxo-α-(3-phenyl-2-propynyl)-] in this work.
An inhibition at 5 µM (MMP-9) of 2% and an inhibition at 5 µM (MMP-3; at 5 μM) of 20% were found for CC(C)(CCC(=O)c1ccc(-c2ccc(Cl)cc2)cc1)C(=O)O [Example 337, [1,1'-Biphenyl]-4-pentanoic acid, 4'-chloro-α,α-dimethyl-δ-oxo-] in this work.
An IC50 (MMP-9) of 360 nM and an IC50 (MMP-3) of 270 nM were found for O=C(CC(CCCCCc1ccccc1)C(=O)O)c1ccc(-c2ccc(Cl)cc2)cc1 (stereo not drawn) [Example 180, [1,1'-Biphenyl]-4-butanoic acid, 4'-chloro-γ-oxo-α-(5-phenylpentyl)-] in this work.
An IC50 (MMP-9) of 4800 nM and an IC50 (MMP-3) of 339 nM were found for O=C(CC(CSc1ccccc1C(=O)O)C(=O)O)c1ccc(-c2ccc(Cl)cc2)cc1 (centres unmarked) [Example 233] in this work.
An inhibition at 5 µM (MMP-9) of 50% and an IC50 (MMP-3) of 1600 nM were found for Nc1ccc(-c2ccc(C(=O)CC(CCc3ccccc3)C(=O)O)cc2)cc1 (stereo not drawn) [Example 136, [1,1'-Biphenyl]-4-butanoic acid, 4'-amino-γ-oxo-α-(2-phenylethyl)-] in this work.
An IC50 (MMP-9) of 4500 nM and an IC50 (MMP-3) of 400 nM were found for O=C(CC(CCCc1ccccc1)C(=O)O)c1ccc(-c2ccc(C(F)(F)F)cc2)cc1 (stereo not drawn) [Example 62, [1,1'-Biphenyl]-4-butanoic acid, γ-oxo-α-(3-phenylpropyl)-4'-(trifluoromethyl)-] in this work.
An IC50 (MMP-9) of 1200 nM and an IC50 (MMP-3) of 750 nM were found for Cc1ccc(-c2ccc(C(=O)CC(CC(C)C)C(=O)O)cc2)cc1 (stereo not drawn) [Example 21, [1,1'-Biphenyl]-4-butanoic acid, 4'-methyl-α-(2-methylpropyl)-γ-oxo-] in this work.
An IC50 (MMP-9) of 1200 nM and an IC50 (MMP-3) of 1300 nM were found for COc1ccc(SCC(CC(=O)c2ccc(-c3ccc(Cl)cc3)cc2)C(=O)O)cc1OC (stereo not drawn) [Example 215, [1,1'-Biphenyl]-4-butanoic acid, 4'-chloro-α-[[(3,4-dimethoxyphenyl)thio]methyl]-γ-oxo-] in this work.
An IC50 (MMP-9) of 215 nM and an IC50 (MMP-3) of 213 nM were found for O=C(CC(CSc1ccc(O)cc1)C(=O)O)c1ccc(-c2ccc(Cl)cc2)cc1 (stereo not drawn) [Example 204, [1,1'-Biphenyl]-4-butanoic acid, 4'-chloro-α-[[(4-hydroxyphenyl)thio]methyl]-γ-oxo-] in this work.
An IC50 (MMP-9) of 2000 nM and an IC50 (MMP-3) of 950 nM were found for O=C(O)CC(CSc1cccs1)C(=O)c1ccc(-c2ccc(Cl)cc2)cc1 (stereo not drawn) [Example 255, [1,1'-Biphenyl]-4-butanoic acid, 4'-chloro-γ-oxo-β-[(2-thienylthio)methyl]-] in this work.
In the case of CC(C)CC1CC(c2ccc(-c3ccc(Cl)cc3)cc2)OC1=O (centres unmarked) [Example 36, 2(3H)-Furanone, 5-(4'-chloro[1,1'-biphenyl]-4-yl)dihydro-3-(2-methylpropyl)-, reference compound], the inhibition at 5 µM (MMP-9) is reported as 0% and the “MMP-3 Thiopep. % inhibition” value (MMP-3; at 5 μM) is reported as 0%.
An IC50 (MMP-9) of 2300 nM and an IC50 (MMP-3) of 640 nM were found for CC(=O)SCC(CC(=O)c1ccc(-c2ccc(Cl)cc2)cc1)C(=O)O (stereo not drawn) [Example 200, [1,1'-Biphenyl]-4-butanoic acid, α-[(acetylthio)methyl]-4'-chloro-γ-oxo-] in this work.
